Results published in patent US9682025B2, “Combination of active agents for oral administration for improving the quality of nails” (NUTRICOS TECHNOLOGIES, priority 2013, dated 2017).

System: metalloprotease 9 (MMP-9)
Test: Basal synthesis/release of MMP-9 by normal human epidermal keratinocytes (ELISA of culture supernatants)
Type: cell-based
Conditions: NHEK; for % of basal synthesis/release of MMP-9 by keratinocytes: 24 hours incubation; for effect on the basal level of synthesis and/or release of MMP-9 (in words): doses of Table I
Experimental: This test was performed on cells cultured at 37° C., 5% CO2. The culture medium is Keratinocyte-SFM supplemented with epidermal growth factor (EGF) at 0.25 ng/ml, pituitary extract (PE) at 25 μg/ml and gentamicin at 25 μg/ml. […] At the end of this incubation, the culture supernatants were collected and stored so as to assay the amounts of MMP-9 secreted using the ELISA R&D Systems assay kit of reference DY911. The inter-group comparisons were performed using the unpaired bilateral Student's t-test.

SMILES | % of basal synthesis/release of MMP-9 by keratinocytes (cysteine 1.2 μg/ml) [%] | % of basal synthesis/release of MMP-9 by keratinocytes (petroselinic acid 0.1 μM) [%] | effect on the basal level of synthesis and/or release of MMP-9 (in words) | % of basal synthesis/release of MMP-9 by keratinocytes (taurine 1.2 μg/ml)
N[C@@H](CS)C(=O)O [Cysteine] | −12 |  |  | 
CCCCCCCCCCC/C=C\CCCCC(=O)O [Petroselinic acid, C18 delta-6-cis-octadecenoic acid] |  | −12 | no inhibitory activity | 
NCCS(=O)(=O)O [Taurine] |  |  | reverse and moderate tendency | +11%
